Results published in patent publication US20220226341A1, “Pharmaceutical Composition for Alzheimer's Disease” (Kyoto University, priority 2019, published 2022).
pIC50: −log10 of the molar value.

Key:
[1] = Tissue distribution of radioactivity after single intravenous administration of 14C-labeled Compound 1 (blood-brain barrier penetration); type: in vivo; conditions: rats, single iv 5 mg/kg 14C-labeled; for Radioactivity concentration: n = 3
Procedure: [Testing the Penetration of the Compound Through the Blood-Brain Barrier]
Brain permeability (intracerebral transferability) of Compound 1 was evaluated.
^14C-labeled Compound 1 was intravenously administered once in a dose of 5 mg/kg (3.52 MBq/kg) to rats, and histological distribution (biodistribution) thereof was studied.

CDK9/CycT1 = CDK9/CycT1 (Homo sapiens, UniProt P50750); assay: CDK9 inhibitory activity, Off-chip Mobility Shift Assay (MSA); type: biochemical; conditions: room temperature, one hour, read-out: IC50 value with respect to CDK9/CycT1
Procedure: [Assay of CDK9 Inhibitory Activity]
The tests for confirming CDK9 inhibitory activity were carried out by the following procedure according to Off-chip Mobility Shift Assay (MSA).
A substrate/ATP/metal solution (4×) was prepared with use of a kit buffer (20 mM HEPES, 0.01% Triton X-100, 5 mM DTT, pH7.5). A kinase solution (2×) was prepared with use of an assay buffer.
2) The test substance solutions, the substrate/ATP/metal solution, and the kinase solution were mixed in wells of a polypropylene plate, and were caused to react at room temperature for one hour.
3) A termination buffer (QuickScout Screening Assist MSA; Cama Biosciences Inc.)
was added thereto to stop the reaction.
4) Substrate peptides and phosphorylated peptides in the reaction solutions were separated and quantified in LabChip™ System (PerkinElmer Co., Ltd.).
5) Kinase reaction activities were evaluated based on a product ratio (P/(P+S)) calculated from a peak height of the substrate peptide (S) and a peak height of the phosphorylated peptide (P).

[2] = tested on: Human Herpesvirus Type 7 (HHV-7); assay: Antiviral test against HHV-7 in Sup-T1 cells, TaqMan PCR; type: cell-based
Procedure: [Antiviral Test Against HHV-7]
An antiviral test against HHV-7 using Compound 1 was performed by the following procedure.
Virus strain: Human Herpesvirus Type 7 (HHV-7)
(§1) Medium: RPMI-1640+10% FBS+1% penicillin/streptomycin
(§2) Detection method: TaqMan PCR
Sup-T1 cells were cultured at a concentration of 1×10^6/ml, Compound 1, 10 μM, was added, and one hour after, HHV-7 virus (1×10^4 infectious units) were sensitized (or unsensitized cells were prepared as a negative control).
After culturing at 37° C. for two hours, the medium was replaced, and Compound 1 was added again. Five days after, 500 μl of the medium was sampled, and HHV-7 virus was quantified by TaqMan PCR. Statistical analysis was performed by Student's t-test.

[3] = tested on: Human Herpesvirus Type 6A (HHV-6A); assay: Antiviral test against HHV-6A in Sup-T1 cells, TaqMan PCR; type: cell-based
Procedure: [Antiviral Test Against HHV-6A]
An antiviral test against HHV-6A using Compound 1 was performed by the following procedure.
Virus strain: Human Herpesvirus Type 6A (HHV-6A)
as §1, §2
Sup-T1 cells were cultured at a concentration of 1×10^6/ml, Compound 1, 3 μM, was added, and one hour after, HHV-6A virus (1×10^4 infectious units) were sensitized (or unsensitized cells were prepared as a negative control).
After culturing at 37° C. for two hours, the medium was replaced, and Compound 1 was added again. Three days after, 500 μl of the medium was sampled, and HHV-6A virus was quantified by TaqMan PCR. Statistical analysis was performed by Student's t-test.

Sequence of CDK9/CycT1 (P50750 whole entry): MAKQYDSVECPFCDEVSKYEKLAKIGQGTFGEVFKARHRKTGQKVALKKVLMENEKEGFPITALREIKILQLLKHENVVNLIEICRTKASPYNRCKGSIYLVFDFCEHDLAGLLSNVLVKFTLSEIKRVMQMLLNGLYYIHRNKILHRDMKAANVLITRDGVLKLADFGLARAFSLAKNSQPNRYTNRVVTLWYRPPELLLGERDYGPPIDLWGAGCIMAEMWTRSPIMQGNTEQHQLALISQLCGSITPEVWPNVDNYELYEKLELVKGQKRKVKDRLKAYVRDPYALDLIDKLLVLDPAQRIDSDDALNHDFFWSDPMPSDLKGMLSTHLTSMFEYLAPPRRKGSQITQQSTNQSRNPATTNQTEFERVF
Sequence of CDK9/CycT1 (O60563 whole entry partner): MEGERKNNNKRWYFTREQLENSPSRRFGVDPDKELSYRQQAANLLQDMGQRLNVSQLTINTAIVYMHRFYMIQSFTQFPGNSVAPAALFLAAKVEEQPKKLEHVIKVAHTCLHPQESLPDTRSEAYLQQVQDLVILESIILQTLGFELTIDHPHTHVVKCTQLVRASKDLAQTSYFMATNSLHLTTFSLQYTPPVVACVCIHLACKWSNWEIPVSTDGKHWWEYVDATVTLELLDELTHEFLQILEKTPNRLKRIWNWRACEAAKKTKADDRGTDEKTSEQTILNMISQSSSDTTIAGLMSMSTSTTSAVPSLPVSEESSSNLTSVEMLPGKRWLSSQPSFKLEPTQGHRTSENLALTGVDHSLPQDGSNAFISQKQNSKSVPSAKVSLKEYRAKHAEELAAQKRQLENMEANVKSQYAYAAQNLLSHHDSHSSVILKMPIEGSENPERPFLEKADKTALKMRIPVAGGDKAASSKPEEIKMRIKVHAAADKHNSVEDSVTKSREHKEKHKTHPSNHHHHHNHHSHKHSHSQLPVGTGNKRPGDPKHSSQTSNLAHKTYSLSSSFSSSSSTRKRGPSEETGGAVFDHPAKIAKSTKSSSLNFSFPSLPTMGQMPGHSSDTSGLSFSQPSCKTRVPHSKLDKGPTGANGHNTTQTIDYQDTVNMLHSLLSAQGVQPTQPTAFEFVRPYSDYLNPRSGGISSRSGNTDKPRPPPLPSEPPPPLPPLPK

Compound: Fc1ccc(N2CCCCC2)c(NC(=S)c2ccncc2)c1 [Compound 1]
- Radioactivity concentration ([1]; Mandibular gland, 24 h): 115.51 ng eq. of Compound 1/g or mL
- Radioactivity concentration ([1]; Mandibular gland, 72 h): 8.87 ng eq. of Compound 1/g or mL
- Radioactivity concentration ([1]; Mandibular lymph node, 5 min): 5693.66 ng eq. of Compound 1/g or mL
- Radioactivity concentration ([1]; Mandibular lymph node, 6 h): 1018.12 ng eq. of Compound 1/g or mL
- Radioactivity concentration ([1]; Mandibular lymph node, 24 h): 108.82 ng eq. of Compound 1/g or mL
- Radioactivity concentration ([1]; Mandibular lymph node, 72 h): 8.13 ng eq. of Compound 1/g or mL
- Radioactivity concentration ([1]; Pancreas, 5 min): 14356.66 ng eq. of Compound 1/g or mL
- Radioactivity concentration ([1]; Pancreas, 6 h): 1206.84 ng eq. of Compound 1/g or mL
- Radioactivity concentration ([1]; Pancreas, 24 h): 105.62 ng eq. of Compound 1/g or mL
- Radioactivity concentration ([1]; Pancreas, 72 h): 7.37 ng eq. of Compound 1/g or mL
- Radioactivity concentration ([1]; Prostate gland, 5 min): 5072.42 ng eq. of Compound 1/g or mL
- Radioactivity concentration ([1]; Prostate gland, 6 h): 1268.5 ng eq. of Compound 1/g or mL
- Radioactivity concentration ([1]; Prostate gland, 24 h): 114.45 ng eq. of Compound 1/g or mL
- Radioactivity concentration ([1]; Prostate gland, 72 h): 7.62 ng eq. of Compound 1/g or mL
- Radioactivity concentration ([1]; Skeletal muscle, 5 min): 2479.87 ng eq. of Compound 1/g or mL
- Radioactivity concentration ([1]; Skeletal muscle, 6 h): 838.23 ng eq. of Compound 1/g or mL
- Radioactivity concentration ([1]; Skeletal muscle, 24 h): 97.94 ng eq. of Compound 1/g or mL
- Radioactivity concentration ([1]; Skeletal muscle, 72 h): 10.11 ng eq. of Compound 1/g or mL
- Radioactivity concentration ([1]; Skin, 5 min): 3889.26 ng eq. of Compound 1/g or mL
- Radioactivity concentration ([1]; Skin, 6 h): 2084.85 ng eq. of Compound 1/g or mL
- Radioactivity concentration ([1]; Skin, 24 h): 150.1 ng eq. of Compound 1/g or mL
- Radioactivity concentration ([1]; Skin, 72 h): 23.26 ng eq. of Compound 1/g or mL
- Radioactivity concentration ([1]; Skin, 168 h): 6.57 ng eq. of Compound 1/g or mL
- Radioactivity concentration ([1]; Small intestine, 5 min): 6555.86 ng eq. of Compound 1/g or mL
- Radioactivity concentration ([1]; Small intestine, 6 h): 1979.83 ng eq. of Compound 1/g or mL
- Radioactivity concentration ([1]; Small intestine, 24 h): 156.71 ng eq. of Compound 1/g or mL
- Radioactivity concentration ([1]; Small intestine, 72 h): 9.85 ng eq. of Compound 1/g or mL
- Radioactivity concentration ([1]; Spleen, 5 min): 6622.6 ng eq. of Compound 1/g or mL
- Radioactivity concentration ([1]; Spleen, 6 h): 944.65 ng eq. of Compound 1/g or mL
- Radioactivity concentration ([1]; Spleen, 24 h): 113.01 ng eq. of Compound 1/g or mL
- Radioactivity concentration ([1]; Spleen, 72 h): 9.68 ng eq. of Compound 1/g or mL
- Radioactivity concentration ([1]; Stomach, 5 min): 8261.97 ng eq. of Compound 1/g or mL
- Radioactivity concentration ([1]; Stomach, 6 h): 2309.97 ng eq. of Compound 1/g or mL
- Radioactivity concentration ([1]; Stomach, 24 h): 227.12 ng eq. of Compound 1/g or mL
- Radioactivity concentration ([1]; Testis, 5 min): 2762.22 ng eq. of Compound 1/g or mL
- Radioactivity concentration ([1]; Testis, 6 h): 1217.12 ng eq. of Compound 1/g or mL
- Radioactivity concentration ([1]; Testis, 24 h): 128.05 ng eq. of Compound 1/g or mL
- Radioactivity concentration ([1]; Testis, 72 h): 8.72 ng eq. of Compound 1/g or mL
- Radioactivity concentration ([1]; Thymus, 5 min): 5034.15 ng eq. of Compound 1/g or mL
- Radioactivity concentration ([1]; Thymus, 6 h): 954.13 ng eq. of Compound 1/g or mL
- Radioactivity concentration ([1]; Thymus, 24 h): 97.42 ng eq. of Compound 1/g or mL
- Radioactivity concentration ([1]; Thymus, 72 h): 5.22 ng eq. of Compound 1/g or mL
- Radioactivity concentration ([1]; Thyroid gland, 5 min): 9550.71 ng eq. of Compound 1/g or mL
- Radioactivity concentration ([1]; Thyroid gland, 6 h): 2369.71 ng eq. of Compound 1/g or mL
- Radioactivity concentration ([1]; Thyroid gland, 24 h): 793.99 ng eq. of Compound 1/g or mL
- Radioactivity concentration ([1]; Thyroid gland, 72 h): 298.2 ng eq. of Compound 1/g or mL
- Radioactivity concentration ([1]; Thyroid gland, 168 h): 125.76 ng eq. of Compound 1/g or mL
- Brain permeability (intracerebral transferability) ([1]; cerebellum, cerebrum, pituitary gland higher than plasma at 5 minutes): capable of penetrating the brain
- pIC50 (CDK9/CycT1): 5.24
- Effect of suppressing growth of HHV-7 ([2]; 10 μM, in words): effect of suppressing growth of HHV-7 was confirmed
- HHV-7 copy number ([2]; Compound 1 10 μM, medium sampled five days after, TaqMan PCR): 1844.89
- Effect of suppressing growth of HHV-6A ([3]; 3 μM, in words): effect of suppressing growth of HHV-6A in the Compound 1-treated group was confirmed
- HHV-6A copy number ([3]; Compound 1 3 μM, medium sampled three days after, TaqMan PCR): 6767.59
